Source: ChEMBL document CHEMBL5113507, “Discovery of potent ebola entry inhibitors with (3S,4aS,8aS)-2-(3-amino-2-hydroxypropyl) decahydroisoquinoline-3-carboxamide scaffold” (Eur J Med Chem, 2022)

Key:
[1] = cells
[2] = Cytotoxicity against human Huh-7 cells assessed as reduction in cell viability by cellular ATP method; assay type: toxicity, cell-based

Compound | IC50 [1] [µM] | CC50 [2] [µM]
CC(C)(C)NC(=O)[C@@H]1C[C@@H]2CCCC[C@@H]2CN1C[C@@H](O)[C@H](Cc1ccccc1)NC(=O)[C@H](CC(N)=O)NC(=O)c1ccc2ccccc2n1 | 10.5 | 
CC(C)(C)NC(=O)[C@@H]1C[C@@H]2CCCC[C@@H]2CN1C[C@H](O)CNCCc1ccc(Cl)cc1 |  | 4.04
CN(C)CCOc1ccc(/C(=C(/CCCl)c2ccccc2)c2ccccc2)cc1 [TOREMIFENE] | 0.17 | 9.31
